Experimental data from ChEMBL document CHEMBL1201862, “PubChem BioAssay data set” (2004).
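These data come from cells grown in 96-well plates and exposed to compound for 48 hours at five concentrations. GI50 = concentration required for 50% inhibition of growth.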 Calls of active or inactive are those of the source. No stated cut-off is given here; in the data, active = GI50 up to about 1.1 µM and inactive = higher.

What was measured:
Test in all cases: DTP human tumour cell line panel, 48 h
A549 = tested on: A549
CCRF-CEM = tested on: CCRF-CEM
COLO 205 = tested on: COLO 205
DMS-114 = tested on: DMS-114
EKVX = tested on: EKVX
HCT-116 = tested on: HCT-116
HL-60 = tested on: HL-60
HOP-62 = tested on: HOP-62
HOP-92 = tested on: HOP-92
HT-29 = tested on: HT-29
IGROV-1 = tested on: IGROV-1
K562 = tested on: K562
KM-20L2 = tested on: KM-20L2
KM12 = tested on: KM12
LXFL 529 = tested on: LXFL 529
M14 = tested on: M14
M19-MEL = tested on: M19-MEL
MOLT-4 = tested on: MOLT-4
Malme-3M = tested on: Malme-3M
NCI-H23 = tested on: NCI-H23
NCI-H460 = tested on: NCI-H460
NCI-H522 = tested on: NCI-H522
OVCAR-3 = tested on: OVCAR-3
OVCAR-4 = tested on: OVCAR-4
OVCAR-5 = tested on: OVCAR-5
OVCAR-8 = tested on: OVCAR-8
RPMI-8226 = tested on: RPMI-8226
RXF 393 = tested on: RXF 393
SF-268 = tested on: SF-268
SF-295 = tested on: SF-295
SF-539 = tested on: SF-539
SK-MEL-28 = tested on: SK-MEL-28
SK-MEL-2 = tested on: SK-MEL-2
SK-MEL-5 = tested on: SK-MEL-5
SK-OV-3 = tested on: SK-OV-3
SN12C = tested on: SN12C
SNB-19 = tested on: SNB-19
SNB-75 = tested on: SNB-75
SR = tested on: SR
SW-620 = tested on: SW-620
TK-10 = tested on: TK-10
U-251 = tested on: U-251
UACC-257 = tested on: UACC-257
UACC-62 = tested on: UACC-62
UO-31 = tested on: UO-31
XF498 = tested on: XF498
786-0 = tested on: 786-0
A498 = tested on: A498
ACHN = tested on: ACHN
CAKI-1 = tested on: CAKI-1
DLD-1 = tested on: DLD-1
DMS-273 = tested on: DMS-273
HCC 2998 = tested on: HCC 2998
HCT-15 = tested on: HCT-15
HOP-18 = tested on: HOP-18
NCI-H226 = tested on: NCI-H226
SNB-78 = tested on: SNB-78
LOX IMVI = tested on: LOX IMVI

Measured: GI50

COc1ccc(N2C(Cl)C(=O)C2c2c[nH]c3ccccc23)cc1 (stereo not given)
inactive: A549 > 100 µM | CCRF-CEM > 100 µM | COLO 205 > 100 µM | DMS-114 > 100 µM | EKVX > 100 µM | HCT-116 > 100 µM | HL-60 > 100 µM | HOP-62 > 100 µM | HOP-92 28.3 µM | HT-29 > 100 µM | IGROV-1 > 100 µM | K562 94.8 µM | KM-20L2 > 100 µM | KM12 > 100 µM | LXFL 529 > 100 µM | M14 > 100 µM | M19-MEL > 100 µM | MOLT-4 > 100 µM | Malme-3M 72.6 µM | NCI-H23 > 100 µM | NCI-H460 > 100 µM | NCI-H522 > 100 µM | OVCAR-3 > 100 µM | OVCAR-4 > 100 µM | OVCAR-5 80.9 µM | OVCAR-8 > 100 µM | RPMI-8226 > 100 µM | RXF 393 > 100 µM | SF-268 > 100 µM | SF-295 > 100 µM | SF-539 > 100 µM | SK-MEL-28 > 100 µM | SK-MEL-2 > 100 µM | SK-MEL-5 > 100 µM | SK-OV-3 > 100 µM | SN12C > 100 µM | SNB-19 91.8 µM | SNB-75 > 100 µM | SR > 100 µM | SW-620 > 100 µM | TK-10 > 100 µM | U-251 > 100 µM | UACC-257 > 100 µM | UACC-62 > 100 µM | UO-31 51.9 µM | XF498 > 100 µM

O=C1c2ccccc2C(=O)N1C/C=C/CO
inactive: 786-0 > 100 µM | A498 > 100 µM | A549 > 100 µM | ACHN > 100 µM | CAKI-1 > 100 µM | CCRF-CEM > 100 µM | COLO 205 > 100 µM | DLD-1 > 100 µM | DMS-114 > 100 µM | DMS-273 > 100 µM | HCC 2998 > 100 µM | HCT-116 > 100 µM | HL-60 > 100 µM | HOP-18 > 100 µM | HOP-62 > 100 µM | IGROV-1 > 100 µM | K562 > 100 µM | KM-20L2 > 100 µM | KM12 > 100 µM | LXFL 529 > 100 µM | M14 > 100 µM | M19-MEL > 100 µM | MOLT-4 > 100 µM | Malme-3M > 100 µM | NCI-H226 > 100 µM | NCI-H460 > 100 µM | NCI-H522 98.2 µM | OVCAR-3 > 100 µM | OVCAR-4 > 100 µM | OVCAR-8 > 100 µM | RPMI-8226 > 100 µM | RXF 393 > 100 µM | SF-268 > 100 µM | SF-539 > 100 µM | SK-MEL-28 > 100 µM | SK-MEL-2 > 100 µM | SK-MEL-5 > 100 µM | SK-OV-3 > 100 µM | SN12C > 100 µM | SNB-19 > 100 µM | SNB-75 > 100 µM | SNB-78 > 100 µM | SR > 100 µM | SW-620 > 100 µM | TK-10 > 100 µM | U-251 > 100 µM | UACC-257 > 100 µM | UACC-62 > 100 µM | UO-31 > 100 µM
> 100 µM: HCT-15

COC(=O)CC1N/C(=N\C#N)N(CCc2c[nH]c3ccccc23)C1=O (stereo not given)
> 100 µM: HCT-15
inactive: 786-0 > 100 µM | A549 > 100 µM | ACHN > 100 µM | CCRF-CEM > 100 µM | COLO 205 > 100 µM | DLD-1 > 100 µM | DMS-114 > 100 µM | DMS-273 > 100 µM | EKVX 83 µM | HCC 2998 34.5 µM | HCT-116 > 100 µM | HL-60 > 100 µM | HOP-62 > 100 µM | HT-29 > 100 µM | IGROV-1 > 100 µM | K562 > 100 µM | KM-20L2 > 100 µM | KM12 > 100 µM | LOX IMVI > 100 µM | LXFL 529 > 100 µM | M14 > 100 µM | M19-MEL > 100 µM | MOLT-4 > 100 µM | NCI-H226 > 100 µM | NCI-H23 > 100 µM | NCI-H460 > 100 µM | OVCAR-3 > 100 µM | OVCAR-4 > 100 µM | OVCAR-5 > 100 µM | OVCAR-8 > 100 µM | RPMI-8226 > 100 µM | RXF 393 > 100 µM | SF-268 > 100 µM | SF-295 > 100 µM | SF-539 > 100 µM | SK-MEL-28 > 100 µM | SK-MEL-5 > 100 µM | SK-OV-3 > 100 µM | SN12C > 100 µM | SNB-19 > 100 µM | SNB-75 > 100 µM | SNB-78 > 100 µM | SR 94.2 µM | SW-620 > 100 µM | TK-10 > 100 µM | U-251 > 100 µM | UACC-257 > 100 µM | UACC-62 > 100 µM | UO-31 75.9 µM | XF498 > 100 µM

NC1CCCCC1.O=P(O)(O)C1(P(=O)(O)O)CC1
> 100 µM: HCT-15
inactive: 786-0 > 100 µM | A498 > 100 µM | A549 > 100 µM | ACHN > 100 µM | CAKI-1 > 100 µM | CCRF-CEM > 100 µM | COLO 205 > 100 µM | DMS-114 > 100 µM | DMS-273 > 100 µM | EKVX > 100 µM | HCC 2998 > 100 µM | HCT-116 > 100 µM | HOP-62 > 100 µM | HT-29 > 100 µM | IGROV-1 > 100 µM | K562 > 100 µM | KM-20L2 > 100 µM | KM12 > 100 µM | LOX IMVI > 100 µM | LXFL 529 > 100 µM | M14 > 100 µM | M19-MEL > 100 µM | MOLT-4 > 100 µM | Malme-3M > 100 µM | NCI-H226 > 100 µM | NCI-H23 > 100 µM | NCI-H460 > 100 µM | NCI-H522 > 100 µM | OVCAR-3 > 100 µM | OVCAR-4 > 100 µM | OVCAR-5 > 100 µM | OVCAR-8 > 100 µM | RPMI-8226 > 100 µM | RXF 393 > 100 µM | SF-268 > 100 µM | SF-295 > 100 µM | SF-539 > 100 µM | SK-MEL-28 > 100 µM | SK-MEL-2 > 100 µM | SK-MEL-5 > 100 µM | SK-OV-3 > 100 µM | SN12C > 100 µM | SNB-19 > 100 µM | SNB-75 > 100 µM | SNB-78 > 100 µM | SW-620 > 100 µM | TK-10 > 100 µM | U-251 > 100 µM | UACC-257 > 100 µM | UACC-62 > 100 µM | UO-31 > 100 µM | XF498 > 100 µM
